# Measurements reported in ChEMBL document CHEMBL1201862, “PubChem BioAssay data set” (2004).
# Calls of active or inactive are those of the source.
# Assays:
# [1] = test system: HeLa; assay: Cytotoxicity counterscreen assay for transcriptional activators of heat shock protein 70 (Hsp70). [Related pubchem assays: 1203, 1252 ]; type: functional; conditions: Homo sapiens;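 further: cells exposed to compound for 16 hours before readout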
# [2] = target: Glucose-6-phosphate 1-dehydrogenase (Homo sapiens, UniProt P11413); assay: inhibition of Homo sapiens G6PD, dose series – biochemical, fluorescence, selectivity assay for P. falciparum G6PD inhibitor project, dose response (AID 504792); type: functional
# [3] = target: T1, Peroxisome proliferator-activated receptor gamma/Nuclear receptor coactivator 2 (Homo sapiens, UniProt P37231); assay: (§1) TR-FRET dose response biochemical High Throughput Screening assay for agonists of the steroid receptor coactivator 2 (SRC-2) recruitment by the peroxisome proliferator-activated receptor gamma (PPAR gamma): non-selective agonists. [Related pubchem assays: 1297, 1032 ]; type: functional
# [4] = target: T2, Mannose-6-phosphate isomerase (Homo sapiens, UniProt P34949); assay: MPI inhibition at elevated mannose 6-phosphate – biochemical, fluorescence intensity, high mannose 6-phosphate, primary screen (AID 1220)
# T2 sequence (P34949 whole entry): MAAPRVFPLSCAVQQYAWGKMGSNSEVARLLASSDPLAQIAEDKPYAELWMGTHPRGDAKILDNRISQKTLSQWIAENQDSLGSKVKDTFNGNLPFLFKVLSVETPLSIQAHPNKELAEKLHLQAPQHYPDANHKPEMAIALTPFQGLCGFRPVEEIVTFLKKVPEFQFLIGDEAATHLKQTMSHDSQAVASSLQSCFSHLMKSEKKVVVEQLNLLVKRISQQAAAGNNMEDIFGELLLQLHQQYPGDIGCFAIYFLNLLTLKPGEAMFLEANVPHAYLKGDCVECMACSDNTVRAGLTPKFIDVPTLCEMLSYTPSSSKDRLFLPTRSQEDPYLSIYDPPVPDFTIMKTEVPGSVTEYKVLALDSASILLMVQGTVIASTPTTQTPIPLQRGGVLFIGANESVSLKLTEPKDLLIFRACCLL
# [5] = target: T2, Mannose-6-phosphate isomerase; assay: MPI enzyme activity inhibition – biochemical, fluorescence intensity, coupled assay, primary screen (AID 1209)
# [6] = target: T3, Peroxisome proliferator-activated receptor gamma/Nuclear receptor coactivator 3 (Homo sapiens, UniProt P37231); assay: as §1, with “3 (SRC-3)” for “2 (SRC-2)”, “1301 (Confirmation screen.), 1048 (Primary screen.)]” for “1297, 1032 ]”; type: functional
# [7] = target: T4, Peroxisome proliferator-activated receptor gamma/Nuclear receptor coactivator 1 (Homo sapiens, UniProt P37231); assay: as §1, with “1 (SRC-1)” for “2 (SRC-2)”, “assays (depositor defined):AID1300, AID1808, AID504735, AID631]” for “assays: 1297, 1032 ]”; type: protein assay
# [8] = target: Sphingosine 1-phosphate receptor 3 (Homo sapiens, UniProt Q99500); assay: Dose response cell-based high throughput screening assay for antagonists of the Sphingosine 1-Phosphate Receptor 3 (S1P3). [Related pubchem assays: 1429, 485 ]; type: functional
# [9] = target: 5-hydroxytryptamine receptor 1E (Homo sapiens, UniProt P28566); assay: Counterscreen assay for S1P3 antagonists: Dose response cell-based high throughput screening assay to identify antagonists of the 5-Hydroxytryptamine Receptor Subtype 1E (5HT1E). [Related pubchem assays: 1429, 485 ]; type: functional
# [10] = CCR5-tropic HIV-1 fusion blockers – cell-based, CCR5-tropic Env, dose response (AID 2279); type: functional
# [11] = test system: HEK293; assay: cells; type: functional, cell-based; conditions: Homo sapiens
# [12] = test system: HEK293; assay: inhibition of NOD1-driven NF-kB reporter – cell-based, luminescence, uHTS, primary screen (AID 1578); type: functional; conditions: Homo sapiens
# [13] = target: T5, Neuropeptide Y receptor type 1 (Homo sapiens, UniProt P25929); assay: IC50 of human NPY-Y1 blockers – cell-based, dose response (AID 1277); type: functional
# [14] = target: T6, Neuropeptide Y receptor type 2 (Homo sapiens, UniProt P49146); assay: IC50 for human NPY-Y2 blockade – cell-based, counter-screen for NPY-Y1 antagonist project, dose response (AID 1278); type: functional
# [15] = NIH-3T3 fibroblast cytotoxicity, dose response, cytotoxicity control, cell-based, fluorescence, Alamar Blue, secondary assay (AID 2327); type: functional;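 further: NIH-3T3 mouse fibroblasts cultured with fluconazole at 8 µg/mL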
# [16] = test system: HEK293; assay: NOD2 signaling inhibitors in MDP-stimulated cells, cell-based, uHTS, luminescence (AID 2001); type: functional; conditions: Homo sapiens
# [17] = test system: HEK293; assay: cells; type: functional, cell-based; conditions: Homo sapiens; remark: listed apart in the source
# [18] = target: Nucleotide-binding oligomerization domain-containing protein 2 (Homo sapiens, UniProt Q9HC29); assay: inhibition of NOD2-driven NF-kB reporter – cell-based, luminescence, uHTS, HEK293 (AID 1566); type: functional
# [19] = test system: HEK293; assay: cells; type: functional, cell-based; conditions: Homo sapiens; remark: listed apart in the source
# [20] = target: T3, Peroxisome proliferator-activated receptor gamma/Nuclear receptor coactivator 3; type: functional
# [21] = target: T4, Peroxisome proliferator-activated receptor gamma/Nuclear receptor coactivator 1; type: functional
# [22] = target: T1, Peroxisome proliferator-activated receptor gamma/Nuclear receptor coactivator 2; type: functional
# [23] = target: T7, Replicative DNA helicase DnaB (Mycobacterium tuberculosis, UniProt P9WMR3); assay: DnaB intein splicing inhibitors, dose response, biochemical, cell-free fluorescence (AID 449749); type: functional
# T7 sequence (P9WMR3 whole entry): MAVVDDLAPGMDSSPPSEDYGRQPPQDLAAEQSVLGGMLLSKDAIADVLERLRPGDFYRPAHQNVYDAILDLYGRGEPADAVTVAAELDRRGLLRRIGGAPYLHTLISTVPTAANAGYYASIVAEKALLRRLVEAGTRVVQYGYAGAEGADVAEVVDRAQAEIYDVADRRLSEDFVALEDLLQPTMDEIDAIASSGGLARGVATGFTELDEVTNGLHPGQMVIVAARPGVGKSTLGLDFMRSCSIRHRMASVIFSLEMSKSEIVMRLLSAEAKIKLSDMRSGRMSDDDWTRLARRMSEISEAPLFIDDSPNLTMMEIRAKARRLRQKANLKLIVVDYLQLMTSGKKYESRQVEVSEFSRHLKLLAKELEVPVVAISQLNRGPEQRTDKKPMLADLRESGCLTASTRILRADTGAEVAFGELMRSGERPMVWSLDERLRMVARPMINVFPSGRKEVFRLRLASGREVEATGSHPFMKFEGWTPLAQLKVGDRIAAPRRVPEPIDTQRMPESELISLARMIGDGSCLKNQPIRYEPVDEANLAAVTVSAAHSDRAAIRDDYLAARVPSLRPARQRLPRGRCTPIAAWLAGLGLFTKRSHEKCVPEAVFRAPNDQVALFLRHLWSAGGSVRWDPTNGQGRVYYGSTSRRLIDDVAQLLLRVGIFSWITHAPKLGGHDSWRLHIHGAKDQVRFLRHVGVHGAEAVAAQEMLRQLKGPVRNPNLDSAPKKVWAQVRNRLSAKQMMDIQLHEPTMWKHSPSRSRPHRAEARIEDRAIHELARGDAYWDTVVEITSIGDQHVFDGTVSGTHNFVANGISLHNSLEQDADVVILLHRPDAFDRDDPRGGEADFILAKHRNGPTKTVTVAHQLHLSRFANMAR
# [24] = target: T8, Protein RecA (Mycobacterium tuberculosis, UniProt P9WHJ3); assay: Fluorescence Cell-Free Homogeneous Dose Retest to Identify Inhibitors of RecA-Intein Splicing Activity. [Related pubchem assays (depositor defined):AID2097, AID2223, AID489010, AID492950]; type: functional
# T8 sequence (P9WHJ3 whole entry): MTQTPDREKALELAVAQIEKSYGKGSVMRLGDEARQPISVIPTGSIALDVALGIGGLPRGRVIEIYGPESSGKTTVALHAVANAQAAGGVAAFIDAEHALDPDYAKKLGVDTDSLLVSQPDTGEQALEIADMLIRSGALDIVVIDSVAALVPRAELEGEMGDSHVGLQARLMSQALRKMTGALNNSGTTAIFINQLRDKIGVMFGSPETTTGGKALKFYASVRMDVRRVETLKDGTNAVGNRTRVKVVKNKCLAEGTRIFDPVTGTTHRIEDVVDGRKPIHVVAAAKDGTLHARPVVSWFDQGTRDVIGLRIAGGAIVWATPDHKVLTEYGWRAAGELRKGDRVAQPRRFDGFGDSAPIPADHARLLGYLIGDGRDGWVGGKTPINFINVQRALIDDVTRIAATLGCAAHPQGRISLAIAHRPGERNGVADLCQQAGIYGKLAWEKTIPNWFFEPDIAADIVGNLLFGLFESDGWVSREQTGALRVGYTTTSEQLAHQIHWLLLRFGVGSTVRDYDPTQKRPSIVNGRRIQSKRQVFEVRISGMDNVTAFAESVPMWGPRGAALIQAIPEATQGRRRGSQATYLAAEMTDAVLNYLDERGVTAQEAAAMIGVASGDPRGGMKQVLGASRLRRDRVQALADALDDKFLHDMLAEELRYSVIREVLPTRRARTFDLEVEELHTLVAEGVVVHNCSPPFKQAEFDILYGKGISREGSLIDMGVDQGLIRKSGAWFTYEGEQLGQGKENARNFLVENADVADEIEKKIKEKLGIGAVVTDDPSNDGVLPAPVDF
# [25] = test system: Streptococcus sp. 'group A'; assay: Streptococcus pyogenes SK(-)GAS viability under kanamycin – luminescence, BacTiterGlo, confirmation, counter-screen for streptokinase expression inhibitor project, dose response (AID 1900); type: functional, organism-based
# [26] = mitochondrial function rescue without frataxin homolog – Friedreich's ataxia, plus single-dose screen, dose response (AID 1465); type: functional;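 further: yeast depleted of Yfh1p frataxin homolog grown on glycerol needing respiration; WST-1 tetrazolium dye reduction as measure of cellular dehydrogenase metabolic activity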
# [27] = target: T9, Streptokinase A (Streptococcus pyogenes serotype M1, UniProt P10520); assay: viability-normalized secreted streptokinase activity reduction – plasminogen activation absorbance, OD405, dose response (AID 1914); type: functional, Streptococcus pyogenes M1 GAS;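 further: secreted streptokinase activity via plasminogen activation per viability signal from cell pellet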
# T9 sequence (P10520 whole entry): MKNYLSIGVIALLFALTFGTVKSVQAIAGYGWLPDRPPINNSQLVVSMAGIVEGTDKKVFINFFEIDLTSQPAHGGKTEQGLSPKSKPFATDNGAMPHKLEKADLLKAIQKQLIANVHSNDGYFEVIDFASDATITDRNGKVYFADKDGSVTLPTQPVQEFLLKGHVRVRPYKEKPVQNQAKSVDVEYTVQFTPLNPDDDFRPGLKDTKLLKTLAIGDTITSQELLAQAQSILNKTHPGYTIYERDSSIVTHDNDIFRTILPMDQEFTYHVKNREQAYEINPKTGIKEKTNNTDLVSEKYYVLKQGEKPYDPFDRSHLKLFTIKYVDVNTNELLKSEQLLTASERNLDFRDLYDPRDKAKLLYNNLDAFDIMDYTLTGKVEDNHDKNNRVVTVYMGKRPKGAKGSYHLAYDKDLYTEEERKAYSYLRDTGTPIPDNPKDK
# [28] = test system: Streptococcus; assay: GAS UMAA2166 growth inhibition – luminescence, BacTiterGlo, counter-screen for streptokinase expression inhibitor project, dose response (AID 1915); type: functional, organism-based;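 further: potency for reduction of bacterial viability or growth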
# [29] = A High Throughput Confirmatory Assay used to Identify Novel Compounds that Inhibit Mycobacterium Tuberculosis in the absence of Glycerol.; type: functional
# [30] = microbe, parasite or virus in culture; type: functional; conditions: Mycobacterium tuberculosis
# [31] = target: Luciferin 4-monooxygenase (Photinus pyralis, UniProt P08659); assay: inhibition of purified Photinus pyralis luciferase – biochemical, luminescence, dose response (AID 1891)
# [32] = target: T5, Neuropeptide Y receptor type 1; type: functional
# [33] = Luminescence Cell-Based Dose Confirmation HTS to Identify Inhibitors of Platelet Dense Granule Release. [Related pubchem assays: 1663 (Primary HTS), 1678 (Summary of Project)]; type: functional
# [34] = target: T6, Neuropeptide Y receptor type 2; type: functional, cell-based
# [35] = target: Cytochrome P450 2C19 (Homo sapiens, UniProt P33261); assay: qHTS Assay for Inhibitors and Substrates of Cytochrome P450 2C19. [Related pubchem assays: 410 ]; type: ADME; conditions: read-out: Potency
# [36] = target: Cytochrome P450 2D6 (Homo sapiens, UniProt P10635); assay: qHTS Assay for Inhibitors and Substrates of Cytochrome P450 2D6. [Related pubchem assays: 410 ]; type: ADME; conditions: read-out: Potency
# T6 sequence (P49146 whole entry): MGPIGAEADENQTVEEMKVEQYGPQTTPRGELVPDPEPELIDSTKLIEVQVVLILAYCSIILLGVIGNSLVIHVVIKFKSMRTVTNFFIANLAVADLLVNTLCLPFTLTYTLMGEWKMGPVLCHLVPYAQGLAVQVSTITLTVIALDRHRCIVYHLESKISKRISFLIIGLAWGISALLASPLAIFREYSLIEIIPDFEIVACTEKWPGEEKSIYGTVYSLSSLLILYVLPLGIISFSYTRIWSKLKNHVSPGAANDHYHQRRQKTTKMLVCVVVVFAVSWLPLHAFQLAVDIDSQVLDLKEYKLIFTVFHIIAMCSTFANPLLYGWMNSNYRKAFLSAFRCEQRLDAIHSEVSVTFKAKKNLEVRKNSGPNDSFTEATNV
# T4 sequence (P37231 whole entry): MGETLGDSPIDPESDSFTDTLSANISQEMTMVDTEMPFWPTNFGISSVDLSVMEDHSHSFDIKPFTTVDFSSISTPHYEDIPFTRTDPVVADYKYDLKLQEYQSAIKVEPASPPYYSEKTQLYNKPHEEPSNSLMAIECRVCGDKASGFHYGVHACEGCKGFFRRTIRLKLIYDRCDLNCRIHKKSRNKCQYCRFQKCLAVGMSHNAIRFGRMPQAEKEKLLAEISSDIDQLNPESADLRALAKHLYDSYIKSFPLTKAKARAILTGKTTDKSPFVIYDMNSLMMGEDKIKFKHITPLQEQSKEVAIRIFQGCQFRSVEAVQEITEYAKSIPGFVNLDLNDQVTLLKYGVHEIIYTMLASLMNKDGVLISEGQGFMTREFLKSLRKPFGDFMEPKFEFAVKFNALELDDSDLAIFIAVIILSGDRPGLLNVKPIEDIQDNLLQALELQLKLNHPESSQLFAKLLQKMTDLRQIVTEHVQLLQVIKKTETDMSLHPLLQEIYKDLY
# T4 sequence (Q15788 whole entry, further chain): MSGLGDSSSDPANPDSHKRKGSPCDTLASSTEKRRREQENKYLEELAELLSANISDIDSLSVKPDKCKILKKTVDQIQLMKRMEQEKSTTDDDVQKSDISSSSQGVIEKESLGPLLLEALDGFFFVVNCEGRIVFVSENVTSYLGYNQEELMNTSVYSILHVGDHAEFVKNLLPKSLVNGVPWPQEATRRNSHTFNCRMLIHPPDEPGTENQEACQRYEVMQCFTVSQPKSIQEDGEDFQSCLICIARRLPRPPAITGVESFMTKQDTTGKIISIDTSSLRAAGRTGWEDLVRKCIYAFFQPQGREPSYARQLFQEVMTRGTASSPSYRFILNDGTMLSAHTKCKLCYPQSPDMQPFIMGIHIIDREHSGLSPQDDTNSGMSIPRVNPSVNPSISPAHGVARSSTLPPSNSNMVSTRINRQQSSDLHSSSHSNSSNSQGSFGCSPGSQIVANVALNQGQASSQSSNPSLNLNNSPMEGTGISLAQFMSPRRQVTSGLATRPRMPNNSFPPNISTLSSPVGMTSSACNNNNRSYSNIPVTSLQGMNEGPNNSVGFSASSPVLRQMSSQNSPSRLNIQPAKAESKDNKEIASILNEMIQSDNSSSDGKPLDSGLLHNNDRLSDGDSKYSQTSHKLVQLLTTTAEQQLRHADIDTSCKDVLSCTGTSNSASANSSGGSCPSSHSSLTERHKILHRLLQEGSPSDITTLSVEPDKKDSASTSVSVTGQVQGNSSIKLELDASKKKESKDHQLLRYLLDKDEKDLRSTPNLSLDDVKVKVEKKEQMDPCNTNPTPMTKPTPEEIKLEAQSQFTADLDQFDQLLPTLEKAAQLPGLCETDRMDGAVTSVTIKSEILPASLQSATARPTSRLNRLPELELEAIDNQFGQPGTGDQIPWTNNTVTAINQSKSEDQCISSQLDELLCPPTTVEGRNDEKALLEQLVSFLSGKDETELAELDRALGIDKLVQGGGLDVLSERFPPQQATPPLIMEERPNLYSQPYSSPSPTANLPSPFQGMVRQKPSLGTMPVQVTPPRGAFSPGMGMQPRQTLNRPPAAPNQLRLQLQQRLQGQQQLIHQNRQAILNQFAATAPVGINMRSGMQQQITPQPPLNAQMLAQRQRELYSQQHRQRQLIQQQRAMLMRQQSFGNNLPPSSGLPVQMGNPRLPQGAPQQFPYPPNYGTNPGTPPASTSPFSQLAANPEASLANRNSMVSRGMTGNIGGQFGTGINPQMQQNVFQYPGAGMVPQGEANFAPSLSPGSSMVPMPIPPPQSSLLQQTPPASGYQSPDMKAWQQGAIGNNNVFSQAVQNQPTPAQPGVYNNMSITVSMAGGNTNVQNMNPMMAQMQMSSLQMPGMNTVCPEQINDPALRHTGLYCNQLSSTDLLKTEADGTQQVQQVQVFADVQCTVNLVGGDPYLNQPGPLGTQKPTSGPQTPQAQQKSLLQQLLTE
# T3 sequence (P37231 whole entry): as the sequence (P37231 whole entry) above
# T3 sequence (Q9Y6Q9 whole entry, further chain): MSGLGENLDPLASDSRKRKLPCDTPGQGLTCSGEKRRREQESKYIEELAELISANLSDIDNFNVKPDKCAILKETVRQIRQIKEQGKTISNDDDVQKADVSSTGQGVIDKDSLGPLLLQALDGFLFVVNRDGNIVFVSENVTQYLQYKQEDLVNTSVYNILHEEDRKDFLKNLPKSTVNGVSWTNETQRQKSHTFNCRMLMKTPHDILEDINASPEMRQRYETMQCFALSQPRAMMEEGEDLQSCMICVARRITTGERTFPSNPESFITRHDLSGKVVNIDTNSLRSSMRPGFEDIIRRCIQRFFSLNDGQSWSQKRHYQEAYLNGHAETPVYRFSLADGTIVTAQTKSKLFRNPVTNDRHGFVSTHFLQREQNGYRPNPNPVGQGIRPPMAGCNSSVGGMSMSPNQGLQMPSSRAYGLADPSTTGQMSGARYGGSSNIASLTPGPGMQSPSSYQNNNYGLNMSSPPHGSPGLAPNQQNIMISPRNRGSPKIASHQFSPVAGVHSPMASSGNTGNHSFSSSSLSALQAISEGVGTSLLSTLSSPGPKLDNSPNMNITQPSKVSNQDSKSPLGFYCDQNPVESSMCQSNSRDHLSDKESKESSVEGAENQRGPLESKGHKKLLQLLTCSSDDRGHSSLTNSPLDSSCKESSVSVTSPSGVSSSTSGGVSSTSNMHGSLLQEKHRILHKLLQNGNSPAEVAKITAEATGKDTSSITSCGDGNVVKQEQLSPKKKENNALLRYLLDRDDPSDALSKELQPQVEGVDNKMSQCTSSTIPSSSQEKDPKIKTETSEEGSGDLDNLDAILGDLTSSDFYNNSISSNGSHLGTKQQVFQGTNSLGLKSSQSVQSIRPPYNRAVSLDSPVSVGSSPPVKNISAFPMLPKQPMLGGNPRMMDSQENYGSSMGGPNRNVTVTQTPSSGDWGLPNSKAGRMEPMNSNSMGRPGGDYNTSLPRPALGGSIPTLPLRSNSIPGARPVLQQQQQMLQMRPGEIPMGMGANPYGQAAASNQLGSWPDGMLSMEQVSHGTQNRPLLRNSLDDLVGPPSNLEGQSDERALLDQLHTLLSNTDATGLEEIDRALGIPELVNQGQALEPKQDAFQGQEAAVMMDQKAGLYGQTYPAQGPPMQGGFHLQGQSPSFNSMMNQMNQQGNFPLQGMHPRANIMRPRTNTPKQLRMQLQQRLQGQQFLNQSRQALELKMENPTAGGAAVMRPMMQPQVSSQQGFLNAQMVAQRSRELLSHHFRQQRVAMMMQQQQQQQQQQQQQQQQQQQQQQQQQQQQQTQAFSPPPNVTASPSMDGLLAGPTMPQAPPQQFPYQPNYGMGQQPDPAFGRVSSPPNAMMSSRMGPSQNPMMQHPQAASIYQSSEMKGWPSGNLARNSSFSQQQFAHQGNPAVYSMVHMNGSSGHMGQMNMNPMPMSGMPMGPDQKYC
# T5 sequence (P25929 whole entry): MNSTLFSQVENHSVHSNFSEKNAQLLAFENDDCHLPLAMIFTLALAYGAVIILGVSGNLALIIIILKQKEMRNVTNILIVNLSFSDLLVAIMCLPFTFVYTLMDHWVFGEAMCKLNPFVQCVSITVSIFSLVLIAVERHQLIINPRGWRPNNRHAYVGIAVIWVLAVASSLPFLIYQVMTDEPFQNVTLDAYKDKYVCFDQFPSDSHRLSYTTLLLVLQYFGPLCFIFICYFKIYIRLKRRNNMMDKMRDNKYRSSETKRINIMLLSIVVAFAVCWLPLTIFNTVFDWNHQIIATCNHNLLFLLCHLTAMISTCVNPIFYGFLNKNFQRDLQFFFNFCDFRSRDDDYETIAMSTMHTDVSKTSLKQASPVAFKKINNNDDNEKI
# Chain of Sphingosine 1-phosphate receptor 3 (Q99500 whole entry): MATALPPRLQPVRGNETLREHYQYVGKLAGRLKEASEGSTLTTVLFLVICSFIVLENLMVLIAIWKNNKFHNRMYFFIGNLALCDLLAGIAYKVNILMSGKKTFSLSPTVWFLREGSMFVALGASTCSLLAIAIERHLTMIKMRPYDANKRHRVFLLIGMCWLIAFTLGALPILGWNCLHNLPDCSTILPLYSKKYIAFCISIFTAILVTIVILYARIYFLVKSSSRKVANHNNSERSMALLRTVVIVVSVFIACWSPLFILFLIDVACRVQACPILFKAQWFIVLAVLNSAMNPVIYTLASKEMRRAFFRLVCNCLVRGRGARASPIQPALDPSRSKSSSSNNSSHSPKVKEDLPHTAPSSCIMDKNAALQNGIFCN
smiles,measurement,setting,value
CC(CC1CC(C)(C)OC1=O)C(=O)Nc1ccc([N+](=O)[O-])cc1 (stereo unspecified),CC50,[1],> 99 µM (not active)
Cc1cccc(-n2c(=S)[nH]c3sc4c(c3c2=O)CCc2ccccc2-4)c1,IC50,[2],> 80 µM (inactive)
same,EC50,[3],> 79.4 µM (not active)
same,IC50,[4],> 50 µM (not active)
same,IC50,[5],36.3 µM (active)
same,EC50,[6],> 79.4 µM (not active)
same,EC50,[7],> 79.4 µM (inactive)
Cc1ccc(NC(=O)C(c2ccccc2)C2CCCC2)cc1 (stereo unspecified),IC50,[8],2.43 µM (active)
same,IC50,[9],7.06 µM (active)
COc1ccc(S(=O)(=O)Nc2ccccc2C(=O)Nc2nc(-c3ccc(F)cc3)cs2)cc1OC,IC50,[10],4.41 µM (active)
CC1(C)CC(N2CCCCCC2)=CC(=[N+]2CCCC2)C1,IC50,[11],> 20 µM (inactive)
same,EC50,[12],4.99 µM (active)
same,IC50,[13],> 35 µM (not active)
same,IC50,[14],> 35 µM (not active)
same,EC50,[15],> 150 µM (inactive)
same,IC50,[16],16.4 µM (inactive)
same,IC50,[17],8.01 µM (active)
same,EC50,[18],17.5 µM (active)
same,IC50,[19],> 20 µM (inactive)
CCOc1cccc(C(=O)Nc2nnc(-c3cccs3)s2)c1,EC50,[20],30.3 µM (not active)
same,EC50,[21],24.1 µM (not active)
same,EC50,[22],22.2 µM (not active)
N#C/C(=N\Nc1ccc(S(=O)(=O)N2CCc3ccccc32)cc1)C(N)=S,AC50,[23],2.32 µM (active)
same,EC50,[24],31.7 µM (active)
same,EC50,[25],14.5 µM (active)
same,EC50,[26],> 100 µM (active)
same,EC50,[27],> 150 µM (not active)
same,EC50,[28],40 µM (active)
CC(C)NC(=S)N/N=C/c1c[nH]c2ccccc12,IC50,[29],> 100 µM (active)
same,CC50,[30],> 40 µM (active)
COc1cc(/C=N/NC(N)=O)ccc1OCC(=O)Nc1ccc(C)c(C)c1,EC50,[31],> 112 µM (not active)
same,IC50,[32],> 35 µM (not active)
same,EC50,[33],11.4 µM (active)
same,IC50,[34],9.83 µM (active)
C[C@@H](C(=O)O)c1ccc(N2Cc3ccccc3C2=O)cc1 [(R)-INDOPROFEN],AC50,[35],10 µM (inconclusive)
same,AC50,[36],7.94 µM (inconclusive)
